This note sets out measurements from paper PMC12276035, “Novel Para‐Phenylenediamine‐Based Derivatives as Receptor Tyrosine Kinase‐like Orphan Receptor 1 (ROR1) Inhibitors: An In Vitro Preliminary Characterization” (Chemmedchem, 2025).

Where two headings read alike, the source gives them in different places. A value given as a limit tells only on which side of the number the result lay.

For experiment [1], the target named is T1, ROR1 kinase domain (Homo sapiens, UniProt Q01973).
T1 construct: recombinant human ROR1 protein (aa 453‐783, His&GST Tag); His; GST; purchased Elabscience
T1 sequence (Q01973 453-783): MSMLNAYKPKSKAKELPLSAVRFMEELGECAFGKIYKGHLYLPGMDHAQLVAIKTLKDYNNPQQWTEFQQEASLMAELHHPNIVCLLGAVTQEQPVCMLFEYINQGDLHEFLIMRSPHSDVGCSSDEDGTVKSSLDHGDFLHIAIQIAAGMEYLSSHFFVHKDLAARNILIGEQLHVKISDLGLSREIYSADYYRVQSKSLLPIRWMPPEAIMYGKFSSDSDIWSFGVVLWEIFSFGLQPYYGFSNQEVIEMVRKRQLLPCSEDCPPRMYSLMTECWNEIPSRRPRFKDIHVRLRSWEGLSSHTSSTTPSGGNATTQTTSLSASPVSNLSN
Kind of experiment: SPR assay on ROR1 kinase domain. The format is binding. As to the method: We performed molecular docking experiments to explore the binding mode of novel derivatives using the crystallographic structure of the protein co‐complexed with ponatinib, a known inhibitor of ROR1 (PDB code: 6TU9).^[ [30] ^] […] To evaluate the affinity of the synthesized molecules (10, 13, 14, 17–21, 26–29) for the protein counterpart, SPR assay was performed against kinase domain ROR1. Protein immobilization was achieved using the amide coupling method, and the molecules were tested at 10 different concentrations, ranging from 0 to 100 μM. Ponatinib was used as a positive control^[ [30] ^] (Table 1 ).
SPR spectroscopy analyses were conducted to evaluate the binding affinity of the synthesized compounds against ROR1 receptor using a Biacore T200 optical biosensor equipped with research‐grade CM5 sensor chips (Cytiva, Marlborough, USA). ROR1 kinase domain was immobilized on the CM5 sensor chip surface following standard amine‐coupling protocols. Specifically, kinasic domain was immobilized at pH 4.5 10 mM CH3COONa using a flow rate of 10 μL min^−1, achieving a density of around 20 kRU.
For the experiments, surfaces of ROR1, along with an unmodified reference surface, were prepared for simultaneous analyses. […] The compounds were injected in a series of concentrations (1:2 dilution, 10 different concentrations), spanning from 0 to 100 μM. The concentration series were prepared in 96‐well plates. SPR experiments were conducted at 25 °C, with a flow rate of 20 μL min^−1, allowing for 90 s of association monitoring and 400 s of dissociation monitoring. Changes in mass, reflective of the binding response, were recorded as resonance units (RU). K D values were determined using the Biaevaluation software performing a global fit of the double‐referenced association and dissociation data to a 1:1 interaction model^[ [43] ^] (see Figure S38, Supporting Information).
(In general: In SPR one partner is held on a chip, and binding of the other changes the refractive index at the surface.)

Experiment [2] has as its system SH‐SY5Y cells. Kind of experiment: MTT cell viability assay, SH‐SY5Y. The following applies: Homo sapiens, cytotoxicity, treated for 72 h, read-out: EC50 ± SD SH‐SY5Y. In kind it is cell-based. Here is the method:
(§1) Cytotoxicity studies, assessing the activity of the synthetized compounds, were performed only on the molecules showing the best binding profile in the SPR assay. MTT test was performed on two cell lines known for overexpressing ROR1, particularly MTT assays were conducted on JeKo‐1 (human mantle cell lymphoma) and SH‐SY5Y (neuroblastoma), exposing them to different concentrations of compounds for 72 h (Table 2 ). […] This increased effectiveness is likely due to the high expression of the target protein in leukemia and other hematologic malignancies. […] A key structural difference in 18 and 19 compared to active compounds is the absence of the trifluoromethyl group on the aromatic ring. Indeed, the removal of the trifluoromethyl group (18) or the incorporation of an electron‐donating substituent (19) alters the interaction with the ATP‐binding pocket.
The neuroblastoma SH‐SY5Y cells, a human neuroblastoma cell line of neural crest origin, were obtained from ATCC and were grown in DMEM supplemented with 10% v/v fetal bovine serum, 2 mM L‐glutamine, 100 U mL^−1 penicillin, and 0.1 mg mL^−1 streptomycin.
(§2) Cell viability was established by measuring mitochondrial metabolic activity with MTT. In brief, SH‐SY5Y (20 × 10^3 cells/well) and JeKo‐1 (10 × 10^3 cells/well) were plated into 96‐well plates for 24 h, then the compounds (1.56–50 μM) were added. […], cells were replaced with a fresh medium containing 0.5 mg mL^−1 MTT.^[ [45] ^] Cells were incubated for 1–3 h at 37 °C, then the medium was discarded, and formazan blue crystals in the cells dissolved with 100 μL per well of a solution containing isopropanol/HCl 0.1 M. The absorbance was measured at 570 nm using a microplate reader (Multiskan Go, Thermo Scientific, Waltham, MA, USA). Cell viability was expressed as a percentage relative to the untreated cells cultured in medium with 0.1% DMSO and set to 100%, whereas 10% DMSO was used as positive control and set to 0% of viability. The EC50 values were calculated using GraphPad Prism 8.0 software by nonlinear regression of dose‐response inhibition.

For experiment [3], the system named is JeKo‐1 cells. Kind of experiment: MTT cell viability assay, JeKo‐1. The format is cell-based. The following applies: Homo sapiens, cytotoxicity, treated for 72 h, read-out: EC50 ± SD JeKo‐1. As to the method: as §1
The JeKo‐1 mantle cell lymphoma (MCL) cell line, derived from mantle cell lymphoma of B‐cell lineage, was obtained from ATCC and was grown in RPMI supplemented with 10% v/v fetal bovine serum, 2 mM L‐glutamine, 100 U mL^−1 penicillin, and 0.1 mg mL^−1 streptomycin.
as §2

Experiment [4] relates to JeKo‐1 cells. In words: Annexin V‐FITC/PI staining apoptosis, flow cytometry. The format is cell-based, human. The following applies: JeKo‐1, 20 μM, 72 h, early and late apoptosis. From the text:
This observation aligns with previous studies reporting that ROR1 is highly expressed in B‐cell malignancies, including mantle cell lymphoma, where it plays a crucial role in survival signaling and resistance to apoptosis.^[ [10], [32] ^] Given the higher susceptibility of JeKo‐1 cells to the inhibitor, we selected this model for further apoptotic analysis. However, for completeness, apoptotic data for the SH‐SY5Y cell line are also provided in the Supporting Information (Figure S39, Supporting Information). Specifically, cells were incubated with compounds 17, 20, or 29 (20 μM) for 72 h and a flow cytometry analysis using Annexin V/PI staining was performed. After treatment, a very strong increase in the apoptotic response was observed, in both early and late apoptotic populations compared to the negative control (Figure 4 ). […] These findings are in accordance with the literature and further support the potential of ROR1 inhibition in promoting cell death in mantle cell lymphoma.^[ [33] ^]
Figure 4 Proapoptotic activity of compounds 17, 20, and 29 (20 μM) on JeKo‐1 cells treated for 72 h. A) Representative flow cytometry plots using Annexin V‐FITC/PI staining for apoptosis. B) Related quantitative analysis is reported. Data are expressed as a percentage of live, apoptotic, and necrotic cells. Results are shown as mean ± standard deviation (SD) from three independent experiments. *** denote p < 0.001 versus Ctrl.
Apoptosis of the cells was assessed using annexin V‐FITC/PI reagents. JeKo‐1 cells (60 × 10^3 cells/well) were seeded into 24‐well plates and incubated for 72 h with compounds (20 and 10 μM). After treatment, the collected cells were resuspended in a 100 μL assay buffer, then 5 Annexin V‐FITC and 1 PI reagents were added following incubation for 20 min at room temperature according to the manufacturer's protocol (Dead Cell Apoptosis Kits with Annexin V for Flow Cytometry, Thermo Fisher Scientific). Cells were analyzed with a Becton Dickinson FACScan flow cytometer using the Cell Quest software, version 4 (Franklin Lakes, NJ, USA).^[ [46] ^]
In general terms: A flow cytometer gives signals particle by particle.

[5] abbreviates: SPR, KD ± SD, 0 to 100 μM, 25 °C, n.b. = no binding.
Where [6] appears, read: SPR, KD ± SD, 0 to 100 μM, 25 °C, n.b. = no binding, read-out: Kinase domain KD.

As for `O=S(=O)(Nc1ccc(NCC2CCNCC2)cc1C(F)(F)F)c1ccc(-c2ccccc2)cc1` [Compound 27], in experiment [1] (setting [5]), the “Kinase domain KD” value is given as “n.b”.

For the compound `Cc1ccc(C(=O)Nc2ccc(CN3CCN(C)CC3)c(C(F)(F)F)c2)cc1C#Cc1cnc2cccnn12` [Ponatinib, 3‐(2‐imidazo[1,2‐b]pyridazin‐3‐ylethynyl)‐4‐methyl‐N‐[4‐[(4‐methylpiperazin‐1‐yl)methyl]‐3‐(trifluoromethyl)phenyl]benzamide, reference compound], in experiment [1], binding was put at a Kd of 2.9 ± 0.85 µM. Moreover, the concentration for a half-maximal effect (EC50) was determined as 4.25 ± 3.92 µM in experiment [2] and 1.69 ± 1.03 µM in experiment [3].

On to `O=C(Nc1ccc(NCC2CCNCC2)cc1C(F)(F)F)c1ccc(-c2ccccc2)cc1` [Compound 28], for which the “Kinase domain KD” value in experiment [1] (setting [5]) is “n.b”.

On to `Nc1ccc(CNc2ccc(NC(=O)NCc3ccc(-c4ccccc4)cc3)c(C(F)(F)F)c2)cc1` [Compound 21], for which the “Kinase domain KD” value in experiment [1] (setting [5]) is “n.b”.

`COc1cc(NCC2CCNCC2)ccc1NC(=O)NCc1ccc(-c2ccccc2)cc1` [Compound 19]: the Kd in experiment [1] (setting [6]) was 15 ± 2.47 µM. Also, the concentration giving a half-maximal response (EC50) in experiment [2] and in experiment [3] was above 50 µM throughout.

With `Nc1ccc(CNc2ccc(NS(=O)(=O)c3ccc(-c4ccccc4)cc3)c(C(F)(F)F)c2)cc1` [Compound 26], the “Kinase domain KD” value in experiment [1] (setting [5]) is “n.b”.

For `O=C(NCc1ccc(-c2ccccc2)cc1)Nc1ccc(NC2CCNCC2)cc1C(F)(F)F` [Compound 29], the Kd in experiment [1] (setting [6]) was found to be 13.4 ± 1.92 µM. Besides, the EC50 in experiment [2] is 18.5 ± 2.65 µM; in experiment [3], 13.9 ± 2.75 µM. In experiment [4], this compound registered an apoptotic cells of 73.15 ± 2.76%.

As to `O=C(NCc1ccc(-c2ccccc2)cc1)Nc1ccc(NCc2ccncc2)cc1C(F)(F)F` [Compound 13], the “Kinase domain KD” value in experiment [1] (setting [5]) is reported as “n.b”.

As for `O=C(NCc1ccc(-c2ccccc2)cc1)Nc1ccc(NCC2CCNCC2)cc1` [Compound 18], the Kd in experiment [1] (setting [6]) is 18.4 ± 3.14 µM. Further, the EC50 in experiment [2] and in experiment [3] was above 50 µM throughout.

Turning to `N#CCCNc1ccc(NC(=O)NCc2ccc(C(F)(F)F)cc2)cc1` [Compound 14], in experiment [1] (setting [5]), the “Kinase domain KD” value is “n.b”.

For the compound `N#CCCNc1ccc(NC(=O)NCc2ccc(-c3ccccc3)cc2)c(C(F)(F)F)c1` [Compound 10], in experiment [1] (setting [5]), the “Kinase domain KD” value is on record as “n.b”.

In the case of `NCCCNc1ccc(NC(=O)NCc2ccc(-c3ccccc3)cc2)c(C(F)(F)F)c1` [Compound 20], the Kd in experiment [1] (setting [6]) worked out at 16.7 ± 2.86 µM. In addition, the EC50 stood at 14.2 ± 4.81 µM in experiment [2] and 11.3 ± 3.15 µM in experiment [3]. This compound came in with an apoptotic cells in experiment [4] of 94.50 ± 3.12%.

A word on the Kd: it is a measure of binding affinity in units of concentration. By EC50 is commonly meant the concentration at which the effect is half-maximal.
